Laboratory results as given in patent US9512128B2 (BAYER CROPSCIENCE AG, priority 2012, dated 2016).
Like-named read-outs stand apart in the source and are kept apart here.

Experiments:
[1] = system: cattle ticks (Boophilus microplus); experiment: Boophilus microplus injection test (BOOPMI Inj); assay type: in vivo; details: 20 μg/animal, injection into the abdomen, assessed after 7 days
Protocol: 6. Boophilus microplus Injection Test (BOOPMI Inj)
• Solvent: dimethyl sulphoxide
To produce a suitable preparation of active compound, 10 mg of active compound are mixed with 0.5 ml of solvent, and the concentrate is diluted with solvent to the desired concentration.
1 μl of the active compound solution is injected into the abdomen of 5 fed adult female cattle ticks (Boophilus microplus). The animals are transferred into dishes and kept in a climate-controlled room.
The activity is assessed after 7 days by laying of fertile eggs. Eggs whose fertility is not visible from the outside are stored in a climate-controlled cabinet until the larvae hatch after about 42 days. An efficacy of 100% means that none of the ticks has laid any fertile eggs; 0% means that all eggs are fertile.

[2] = log P by HPLC on reversed-phase columns (C 18), EEC directive 79/831 Annex V.A8; assay type: physicochemical; details: for logP[a]: method [a]; for logP[b]: method [b]; for chromatographic logP: reversed-phase C18 HPLC column
How it was run: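 Measured by reversed-phase C18 HPLC (LC-MS) with a linear 10→95% acetonitrile gradient. Acidic: pH 2.7, 0.1% formic acid. Neutral: pH 7.8, 0.001 M ammonium bicarbonate.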

[3] = system: greenhouse red spider mite (Tetranychus urticae); experiment: Tetranychus urticae spray test, OP-resistant (TETRUR); assay type: in vivo; details: after 6 days, bean leaf discs
How it was run: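 Bean leaf discs infested with all stages of an OP-resistant strain are sprayed with compound in acetone/DMF with alkylaryl polyglycol ether emulsifier, diluted in water; % mortality after 6 days (100% = all mites killed).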

[4] = system: larvae of the mustard beetle (Phaedon cochleariae); experiment: Phaedon cochleariae spray test (PHAECO); assay type: in vivo; details: application rate 500 g/ha, after 7 days, Chinese cabbage leaf discs
Protocol: 2. Phaedon cochleariae Spray Test (PHAECO)
(§1) • Solvents: 78.0 parts by weight of acetone • 1.5 part by weight of dimethylformamide • Emulsifier: 0.5 part by weight of alkylaryl polyglycol ether
(§2) To produce a suitable preparation of active compound, 1 part by weight of active compound is mixed with the stated amounts of solvents and emulsifier, and the concentrate is diluted with emulsifier-containing water to the desired concentration.
After 7 days, the efficacy in % is determined. 100% means that all of the beetle larvae have been killed; 0% means that none of the beetle larvae have been killed.

[5] = system: caterpillars of the armyworm (Spodoptera frugiperda); experiment: Spodoptera frugiperda spray test (SPODFR); assay type: in vivo; details: application rate 500 g/ha, after 7 days, maize leaf discs
Protocol: 3. Spodoptera frugiperda Spray Test (SPODFR)
as §1, §2
Leaf discs of maize (Zea mays) are sprayed with an active compound preparation of the desired concentration and, after drying, populated with caterpillars of the armyworm (Spodoptera frugiperda).
After 7 days, the efficacy in % is determined. 100% means that all of the caterpillars have been killed; 0% means that none of the caterpillars have been killed.

[6] = system: southern root-knot nematode (Meloidogyne incognita); experiment: Meloidogyne incognita test (MELGIN); assay type: in vivo; details: application rate 20 ppm, after 14 days, lettuce
Protocol: 5. Meloidogyne incognita Test (MELGIN) • Solvent: 125.0 parts by weight of acetone To prepare a suitable active compound preparation, 1 part by weight of active compound is mixed with the stated amount of solvent and the concentrate is diluted with water to the desired concentration. Vessels are filled with sand, active compound solution, an egg/larvae suspension of the southern root-knot nematode (Meloidogyne incognita) and lettuce seeds. The lettuce seeds germinate and the plants develop. On the roots, galls are formed. After 14 days, the nematicidal effect in % is determined by the formation of galls. 100% means that no galls have been found; 0% means that the number of galls on the treated plants corresponds to the untreated control.

[7] = system: green peach aphid (Myzus persicae); experiment: Myzus persicae spray test (MYZUPE); assay type: in vivo; details: application rate 500 g/ha, after 6 days, Chinese cabbage leaf discs
Protocol: 1. Myzus persicae Spray Test (MYZUPE)
• Solvents: 78 parts by weight of acetone • 1.5 part by weight of dimethylformamide • Emulsifier: 0.5 part by weight of alkylaryl polyglycol ether
as §2
Discs of Chinese cabbage leaves (Brassica pekinensis) infested by all stages of the green peach aphid (Myzus persicae) are sprayed with an active compound preparation of the desired concentration.
After 6 days, the efficacy in % is determined. 100% here means that all of the aphids have been killed; 0% means that no aphids have been killed.

[8] = pH 2.7, acidic range, pH 2.7, 0.1% aqueous formic acid / acetonitrile, read-out: log P[a]
[9] = pH 2.7, method [a], read-out: logP[a]
[10] = pH 7.8, method [b], read-out: logP[b]
[11] = pH 7.8, neutral range, pH 7.8, 0.001 molar aqueous ammonium bicarbonate / acetonitrile, read-out: log P[b]

| Compound | efficacy in % (laying of fertile eggs) [1] [%] | logP[a] [2] | logP[b] [2] | efficacy in % (spider mites killed) ([3]; application rate 500 g/ha) [%] | efficacy in % (beetle larvae killed) [4] [%] | nematicidal effect in % (formation of galls) [6] [%] | other results |
| --- | --- | --- | --- | --- | --- | --- | --- |
| Cc1ccc(-n2cnc3c(cnn3C)c2=O)cc1[S+]([O-])CC(F)(F)F (racemic) [Compound 27] | 100 | 1.57 | 1.57 | 90 |  |  |  |
| Cc1ccc(-n2cnc3c(c(C)nn3C)c2=O)cc1[S+]([O-])CC(F)(F)F (racemic) [Compound 33] |  | 1.79 | 1.75 | 90 | 100 |  | efficacy in % (caterpillars killed) [5]: 100% |
| Cc1cc(F)c(-n2cnc3c(cnn3C)c2=O)cc1[S+]([O-])CC(F)(F)F (centres unmarked) [Compound 2, 5-{2-Fluoro-4-methyl-5-[(2,2,2-trifluoroethyl)sulphinyl]phenyl}-1-methyl-1,5-dihydro-4H-pyrazolo[3,4-d]pyrimidin-4-one] | 100 |  |  | 100 | 100 |  | chromatographic logP [2, 8]: 1.73; chromatographic logP [2, 9]: 1.73; chromatographic logP [2, 10]: 1.69; chromatographic logP [2, 11]: 1.69 |
| Cc1cc(F)c(-n2c(C)nc3c(cnn3C)c2=O)cc1[S+]([O-])CC(F)(F)F (centres unmarked) [Compound 15, 5-{2-Fluoro-4-methyl-5-[(2,2,2-trifluoroethyl)sulphinyl]phenyl}-1,6-dimethyl-1,5-dihydro-4H-pyrazolo[3,4-d]pyrimidin-4-one] | 100 |  |  | 90 |  | 90 | chromatographic logP [2, 8]: 1.85; chromatographic logP [2, 9]: 1.85; chromatographic logP [2, 10]: 1.84; chromatographic logP [2, 11]: 1.84 |
| Cc1nn(C)c2ncn(-c3ccc(Cl)c(SCC(F)(F)F)c3)c(=O)c12 [Compound 36] |  | 2.82 | 2.79 |  | 100 |  | efficacy in % (caterpillars killed) [5]: 83% |
| Cc1cc(F)c(-n2cnc3cnn(C)c3c2=O)cc1[S+]([O-])CC(F)(F)F (centres unmarked) [Compound 40] | 100 | 1.82 | 1.81 | 90 |  | 100 |  |
| Cc1cc(F)c(-n2c(C)nc3cnn(C)c3c2=O)cc1[S+]([O-])CC(F)(F)F (centres unmarked) [Compound 41] | 100 | 1.90 | 1.88 | 100 |  | 90 |  |
| Cc1c2c(=O)n(-c3ccc(C(F)(F)F)c([S+]([O-])CC(F)(F)F)c3)cnc2nn1C (centres unmarked) [Compound 46] |  | 2.11 | 2.07 |  | 100 | 90 | efficacy in % (caterpillars killed) [5]: 100% |
| Cc1cc(F)c(-n2cnc3scnc3c2=O)cc1[S+]([O-])CC(F)(F)F (centres unmarked) [Compound 61] | 100 | 1.57 | 1.56 | 90 | 100 | 90 |  |
| Cc1nc2c(=O)n(-c3cc([S+]([O-])CC(F)(F)F)c(C)cc3F)cnc2s1 (centres unmarked) [Compound 73] | 100 | 1.80 | 1.77 | 100 |  | 90 |  |
| Cc1cc(F)c(-n2cnc3ncsc3c2=O)cc1[S+]([O-])CC(F)(F)F (centres unmarked) [Compound 79] | 100 | 1.60 | 1.57 | 100 |  | 90 |  |
| COc1ccc(-n2cnc3sccc3c2=O)cc1[S+]([O-])CC(F)(F)F (centres unmarked) [Compound 89] | 100 | 1.91 | 1.91 |  | 100 | 90 |  |
| Cc1cc(F)c(-n2cnc3sccc3c2=O)cc1[S+]([O-])CC(F)(F)F (centres unmarked) [Compound 96] |  | 2.10 | 2.09 | 100 | 100 | 90 |  |
| Cc1cc(F)c(-n2cnc3ccsc3c2=O)cc1[S+]([O-])CC(F)(F)F (centres unmarked) [Compound 112] |  | 1.96 | 1.95 |  | 100 | 90 | efficacy in % (spider mites killed) ([3]; application rate 100 g/ha): 90% |
| Cc1cc(F)c(-n2nnc3c(cnn3C)c2=O)cc1[S+]([O-])CC(F)(F)F (centres unmarked) [Compound 120, 3-{2-Fluoro-4-methyl-5-[(2,2,2-trifluoroethyl)sulphinyl]phenyl}-7-methyl-3,7-dihydro-4H-pyrazolo[3,4-d][1,2,3]triazin-4-one] |  |  |  | 90 | 83 |  | chromatographic logP [2, 8]: 2.14; chromatographic logP [2, 9]: 2.14; chromatographic logP [2, 10]: 2.1; chromatographic logP [2, 11]: 2.1 |
| CCn1ncc2c(=O)n(-c3cc(SCC(F)(F)F)c(C)cc3F)c(C)nc21 [Compound 125] |  |  |  | 100 |  |  | efficacy in % (aphids killed) [7]: 100% |
| Cc1cc(F)c(-n2cnc3c(C)nn(C)c3c2=O)cc1[S+]([O-])CC(F)(F)F (centres unmarked) [Compound 129] | 100 |  |  | 90 |  | 90 |  |
| Cc1cc(C)c([S+]([O-])CC(F)(F)F)cc1-n1cnc2cnn(C)c2c1=O (centres unmarked) [Compound 134] | 100 |  |  | 100 |  | 100 |  |
| Cc1cc(F)c(-n2nnc3cnn(C)c3c2=O)cc1[S+]([O-])CC(F)(F)F (centres unmarked) [Compound 136] |  |  |  | 100 | 83 | 90 |  |
| Cc1cc(F)c(-n2cnc3cnn(C(C)C)c3c2=O)cc1SCC(F)(F)F [Compound 161] |  |  |  | 100 | 83 | 100 |  |
| Cc1cc(F)c(-n2cnc3cnn(C(C)C)c3c2=O)cc1[S+]([O-])CC(F)(F)F (centres unmarked) [Compound 165] |  |  |  | 100 | 100 | 100 |  |
| Cc1cc(F)c(-n2cnc3snc(C)c3c2=O)cc1[S+]([O-])CC(F)(F)F (centres unmarked) [Compound 204] | 100 |  |  | 90 | 83 | 100 |  |
| Cc1cc(F)c(-n2nnc3snc(C)c3c2=O)cc1SCC(F)(F)F [Compound 205] |  |  |  | 100 | 100 |  | efficacy in % (caterpillars killed) [5]: 100% |
| Cc1cc(F)c(-n2nnc3snc(C)c3c2=O)cc1[S+]([O-])CC(F)(F)F (centres unmarked) [Compound 206] |  |  |  | 100 | 100 | 100 | efficacy in % (caterpillars killed) [5]: 100% |
| Cc1cc(F)c(-n2cnc3snc(C(C)(C)C)c3c2=O)cc1[S+]([O-])CC(F)(F)F (centres unmarked) [Compound 208] |  |  |  | 100 | 83 | 100 |  |
